Measured values as given in US10520492B2, “Method of screening for candidate compounds for regulating melanogenesis or pigmentation” (CHANEL PARFUMS BEAUTE, priority 2013, dated 2019).
Entries after “also recorded” stand apart in the source; their conditions may differ.

How the values were obtained:
[1] = system: human melanoma cells G361; assay: Melanosome immunostaining in G361 cells; type: cell-based; settings: OAG-treated vs control G361 cells, FIG. 1B
Description: (§1) The human melanoma G361 were bought from Cell Resource Center for Biomedical Research, Tohoku University, Japan and were cultured in DMEM (Dulbecco's Modified Eagle's Medium, Invitrogen) supplemented with 10% fetal bovine serum in a humidified incubator (37° C. and 5% CO2). Human primary melanocytes from the light and dark skin donors were bought from ScienCell Research Laboratories and were cultured in the recommended melanocyte growth medium. Cells were transfected with the expression plasmids coding for either mortalin or HSP60 protein using Fugene (Roche) as per recommended protocol. Typically 3-5 μg of plasmid DNA was used for 6 cms culture dish at 70-80% confluency. Cells were incubated with the plasmids for 48 hrs after which cells were harvested and examined for the expression indicated genes by protocols as described below. For shRNA transfections, Oligofectamine™ Transfection Reagent (Life Technologies™) was used as per manufacturer's instructions. Transfected cells were incubated with medium supplemented with puromycin (1 ug/ml) for 24-48 hrs and were then processed for assays as described below.
(§2) Cells were cultured and treated on glass coverslips placed in 12-well culture dish. […]

mortalin [2] = assay: Immunostaining of mortalin upon OAG induction; type: cell-based, human; settings: induction of melanogenesis by OAG, FIG. 5
Description: (§3) Cells were cultured and treated on glass coverslips placed in 12-well culture dish. At the end of the treatment as described above, coverslips were washed with cold phosphate-buffered saline (PBS) and the cells were fixed with pre-chilled methanol:acetone (1:1 v/v) mixture for 5-10 min. Fixed cells were washed with PBS, permeabilized with 0.2% TRITON™ X-100 (4-(1,1,3,3-Tetramethylbutyl)phenyl-polyethylene glycol) in PBS for 10 min, and blocked with 2% bovine serum albumin (BSA) in PBS for 20 min. Cells were stained with anti-mortalin, anti-HSP60, anti-tyrosinase and anti-melanosome antibodies. Immunostaining was visualized by secondary staining with Alexa-488 or Alexa-594 conjugated antibodies (Molecular probes). After three to four washings with 0.2% TRITON™ X-100 in PBS (PBST), cells were overlaid with Fluoromount (Difco). The cells were examined with Carl Zeiss microscope with epifluorescence optics.

[3] = system: primary melanocytes from a skin donor; assay: Melanosome immunostaining in primary melanocytes from donor; type: cell-based, human; settings: OAG-treated vs control primary melanocytes, FIG. 1A
Description: as §1, §2

G361 cells = assay: Melanin content in G361 cells; type: cell-based, human; settings: for OAG-induced melanin content: OAG-treated G361 cells, recovery with test substance
Description: Cells were treated with Di-acyl glycerol (OAG, 20 μg/ml) for 24 h followed by recovery either in the normal medium as described below or Vitamin C (0.1-0.3 mM) for 24 to 48 hrs.
(§4) G361 cells were cultured overnight and allowed to adhere to the surface well after which they were treated with TXC supplemented medium or OAG as described below followed by recovery in the TXC medium at doses indicated in the data figs.
Cells were plated in 96 well plates and allowed to attach well to the surface of the plate for 24 hours followed by transfections and treatments as described above and indicated in the figure legends. Cells were washed with PBS. Potassium hydroxide (KOH-0.85 N, 100 μl) was added to each. The plates were shaken gently in dark for overnight. Absorbance of the pigment was measured at 405 nm. Melanin content was calculated by using standard purified melanin (Sigma).

tyrosinase [4] = assay: Western blotting of tyrosinase in G361 cells; type: cell-based, human
Description: (§5) Cells were grown and treated in 6-well plates. After transfections or drug treatments as described above, the cells were lysed with RIPA lysis buffer. Cell lysate (30 μg) was resolved on SDS-PAGE followed by transfer onto a nitrocellulose membrane (Millipore) using a semidry transfer blotter. Immunoassays were done with anti-mortalin, anti-HSP70 and anti-tyrosinase antibodies. The immunocomplexes formed were visualized with horseradish peroxidase-conjugated anti-rabbit/mouse immunoglobulin G. The bands were detected by LAS 3000 mini (FujiFilm).

Hsp60 [5] = assay: Immunostaining of Hsp60 upon OAG induction; type: cell-based, human; settings: induction of melanogenesis by OAG, FIG. 4
Description: as §3

mortalin [6] = assay: Mortalin expression (immunoblotting) in G361 cells; type: cell-based, human
Description: as §4, §5

tyrosinase [7] = assay: Tyrosinase ELISA (tyrosinase activity assay) in G361 cells; type: cell-based, human
Description: Cells (Approximately 10000 cells/well) were plated in 96 well Nunc-Immuno maxisorp plates. At about 70% confluency, cells were transfected with shRNA plasmids (100 ng/well) as described above. After 24 hrs post-transfection, the cells were selected in puromycin-supplemented medium and were then processed for tyrosinase ELISA as described below. Cells were washed with PBS twice and were lysed in RIPA lysis buffer (Santa Cruz Biotechnology). Protein concentrations of the lysates were determined (Pierce BCA Protein Assay kit, Thermo Scientific) and the samples were diluted to 1 ug/ul concentration in coating buffer (0.1 M Sodium bicarbonate, 0.02% Sodium Azide pH-9.6). 5 μg of the protein sample was added to each well in a final volume of 100 μl of the coating buffer. The plates were gently shaken for 10 min and were then securely sealed and left for 2 hrs at room temperature. The solution was discarded and the plates were washed with washing buffer (PBS-0.5% TWEEN® 20, which is polysorbate 20) for 5 min. Blocking buffer (200 ul) was added to each well and the plates were incubated for 2 hours at room temperature followed by washings with the Washing buffer twice (3 min each). Anti-tyrosinase antibody (50 μl, 5 μg/ml in the blocking buffer) was added to each well and the plated were sealed and kept at room temperature for 1-2 hrs followed by washings with the washing buffer (3×10 min). The plates were incubated with the secondary antibody (Alkaline phosphatase, AP-Goat anti Rabbit IgG) for 1 hr and were then washed with the washing buffer for 3-5 times. The 100 μl of the substrate for AP (Nitrophenyl Phosphate, Disodium Salt, PNPP) was added to each well. Plates were again sealed and left for 30 min followed by measuring the absorbance at 405 nm that represented the quantitative estimation of tyrosinase expression.

Hsp60 [8] = assay: Hsp60 expression in G361 cells; type: cell-based, human; settings: FIG. 13B, Hydrochloride Salt

SMILES | melanosome production [1] | mortalin level (immunostaining) (mortalin [2]) | melanosome production [3] | melanin content (G361 cells; G361 cells treated with OAG, FIG. 2) | tyrosinase expression (tyrosinase [4]; OAG-treated G361 cells, FIG. 3A) | Hsp60 level (immunostaining) (Hsp60 [5]) | mortalin expression (mortalin [6]; G361 cells treated with OAG, FIG. 13C) | tyrosinase activity (tyrosinase [7]; OAG-treated G361 cells, FIG. 3B) | endogenous expression of Hsp60 (Hsp60 [8]) | OAG-induced melanin content (G361 cells) | endogenous melanin (G361 cells; OAG-untreated G361 cells) | endogenous expression of tyrosinase (tyrosinase [4]; G361 cells, FIG. 13A, Hydrochloride Salt) | OAG-induced expression of Mortalin (mortalin [6]; G361 cells treated with OAG, then recovery in presence of test substance, Hydrochloride Salt) | endogenous expression of Mortalin (mortalin [6]; G361 cells, FIG. 13, Hydrochloride Salt) | OAG-induced tyrosinase activity (tyrosinase [7]; OAG-treated G361 cells, TXC at various concentrations, FIG. 12) | OAG-induced tyrosinase (tyrosinase [7]; OAG-treated G361 cells then Vitamin C, FIG. 3)
CCCCCCCC/C=C\CCCCCCCC(=O)OC[C@H](CO)OC(C)=O [OAG, 1-oleoyl-2-acetyl-sn-glycero] | induced | upregulation | induced | Increase | increase | upregulation | Increase | increase | – | – | – | – | – | – | – | –
CCCCCCCCCCCCCCCCOC(=O)C1CCC(CN)CC1.Cl (centres unmarked) [TXC, Cetyl Tranexamate Hydrochloride Salt] | – | – | – | – | – | – | – | – | Reduction; also recorded: decreases | reduction | reduction | Reduction; also recorded: decreases | reduction; also recorded: decrease | reduction; also recorded: decreases | reduction | –
O=C1O[C@H]([C@@H](O)CO)C(O)=C1O [Vitamin C] | – | – | – | – | – | – | – | – | – | reduction | – | – | – | – | – | decrease
